According to PMC9387934, “Randomized single oral dose phase 1 study of safety, tolerability, and pharmacokinetics of Iminosugar UV-4 Hydrochloride (UV-4B) in healthy subjects” (PLoS Neglected Tropical Diseases, 2022):
Where two headings read alike, the source gives them in different places.

Assay: Phase 1a single ascending dose study: UV-4 in pooled urine, urinary recovery and renal clearance
Type: in vivo, human
Details: for dose excreted: human, urine, oral, 48 hours
Protocol: Serial blood samples were collected at pre-dose (0 hour) and 0.5, 1, 1.5, 2, 2.5, 3, 4, 6, 9, 12, 18, 24, 36, and 48 hours post-dose for assessment of UV-4 concentrations in plasma. Pooled urine samples were collected at pre-dose (-12 to 0 hour) and from 0 to 6, 6 to 12, 12 to 24, and 24 to 48 hours post-dose for assessment of UV-4 concentrations in urine. Plasma and urine concentrations of UV-4 were determined by means of validated, sensitive, and specific high-performance liquid chromatography/tandem mass spectrometric (LC-MS/MS) assays. UV-4 plasma and urine concentrations and PK parameters were listed and summarized by dose, as appropriate. Only the 48 subjects who received active investigational product were included in the PK analysis population.
8.2.3 Specimen Preparation, Handling, and Shipping
8.2.3.1 Instructions for Specimen Preparation, Handling, and Storage
The collected PK blood samples (2 mL) will be placed on ice after blood draw, and within 1 hour centrifuged at room temperature at approximately 3000 revolutions per minute for 15 minutes. Plasma will then be harvested and split into 4 aliquots of approximately 250 μ L and stored frozen at -20°C until shipped.
Urine samples (approximately 10 mL) for determination of UV-4 concentrations in urine will be taken from the total volume provided during each collection period. The total volume of each urine collection will be recorded along with the start/stop time for each urine collection interval.
Analysis of plasma and urine for UV-4 will be performed by the qualified bioanalytical laboratory, Quintiles Bioservices, Inc., Ithaca, New York 14950. Instructions for the proper preparation, handling, storage and shipping of specimens will be provided separately in a study-specific laboratory manual (i.e., Biopacket).
8.2.3.2 Specimen Shipment […]
The following single-dose urine PK parameters will be estimated from the UV-4 urine concentration-time data collected, as appropriate:
Ae Amount of UV-4 excreted in urine unchanged, calculated for each collection interval and cumulatively across intervals fe Fraction of UV-4 excreted in urine unchanged, calculated for each collection interval and cumulatively across intervals […]
Additional UV-4 PK parameters may be calculated at the discretion of the […]
Plasma concentrations and plasma and urine PK parameters will be summarized by treatment using descriptive statistics, as appropriate. Figures for the arithmetic mean (and SD) concentration-time data will be presented for all doses on both a linear and semi-logarithmic scale. Individual concentration-time data will be graphically presented on linear and semi-logarithmic scales. Scatter plots of individual and geometric mean PK parameters versus dose will be presented. Additional graphical presentations of PK data may be added at the discretion of the PK analyst.
Dose proportionality of Cmax, AUC(0-last), and AUC(0-inf) will be assessed graphically and statistically using the power model approach with the logarithm of PK parameters AUC(0-inf) and Cmax as the dependent variables and the logarithm of the dose as the independent variable: ([AUC(0-inf), AUC(0-last), or Cmax]=α *doseβ).
11.4.7 Deviation from Original Analysis Plan
Deviations from the formal statistical analysis plan will be noted in the final Clinical Study

COCCCCCCCCCN1C[C@H](O)[C@@H](O)[C@H](O)[C@H]1CO [UV-4, N-(9’-methoxynonyl)-1-deoxynojirimycin]
Time over which UV-4 was quantifiable in pooled urine (all doses (3 to 1000 mg), entire collection interval): 48 h
dose excreted (3 to 1000 mg dose range, read-out: UV-4 recovery in urine, range of dose group means): 39.8 to 55.1%
dose excreted (10 to 1000 mg dose range, read-out: Urinary recovery, range of dose group means): 46.4 to 55.1%
Renal clearance as share of UV-4 apparent systemic clearance (in vivo): ≥ 50%
